Like-named read-outs stand apart in the source and are kept apart here.
What was measured:
Assay type in all cases: biochemical
[1] = biological target: Jak2 (human Jak2 kinase domain, amino acids 808-1132) (Homo sapiens (Human), UniProt O60674); test: Jak2 inhibition assay (Omnia kinase assay); conditions: for IC50: Table 1, 500 μM ATP, >1000 nM when >50% inhibition not observed at 1000 nM, read-out: Jak2 Enzyme IC50; for inhibition at 1 µM: 1000 nM test compound
[2] = biological target: TrkA (histidine-tagged recombinant human TrkA, cytoplasmic domain) (Homo sapiens (Human), UniProt P04629); test: TrkA ELISA assay; conditions: Table 1, 500 μM ATP, read-out: TrkA Enzyme IC50
TrkA (histidine-tagged recombinant human TrkA, cytoplasmic domain), sequence (P04629 440-796): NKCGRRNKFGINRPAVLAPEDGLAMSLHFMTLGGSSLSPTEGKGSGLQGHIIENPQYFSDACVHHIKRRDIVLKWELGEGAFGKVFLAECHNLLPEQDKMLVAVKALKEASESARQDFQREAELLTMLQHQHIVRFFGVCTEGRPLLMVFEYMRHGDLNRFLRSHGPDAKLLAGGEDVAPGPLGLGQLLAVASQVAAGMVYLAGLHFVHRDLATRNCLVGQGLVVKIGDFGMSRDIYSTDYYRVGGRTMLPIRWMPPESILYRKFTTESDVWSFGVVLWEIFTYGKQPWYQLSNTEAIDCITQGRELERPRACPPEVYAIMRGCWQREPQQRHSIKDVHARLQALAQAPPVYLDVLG
Procedure: An enzyme-linked immunosorbant assay (ELISA) was used to assess TrkA kinase activity in the presence of inhibitors. Immulon 4HBX 384-well microtiter plates (Thermo part #8755) were coated with a 0.025 mg/mL solution of poly (Glu, Ala, Tyr; 6:3:1; Sigma P3899). […] The assay buffer consisted of 25 mM MOPS pH 7.5, 0.005% (v/v) Triton X-100 and 5 mM MgCl2. The reaction mixture was removed from the plate by washing with PBS containing 0.1% (v/v) Tween 20. The phosphorylated reaction product was detected using 0.2 μg/mL of a phosphotyrosine specific monoclonal antibody (clone PY20) conjugated to horseradish peroxidase in conjunction with the TMB Peroxidase Substrate System (KPL). After the addition of 1M phosphoric acid, the chromogenic substrate color intensity was quantitated via absorbance at 450 nm.

[3] = biological target: Tyk2 (human Tyk2 kinase domain, amino acids 886 to 1187) (Homo sapiens (Human), UniProt P29597); test: Tyk2 inhibition assay (Omnia kinase assay); conditions: read-out: Tyk2 (% inhibition at 1000 nM); Table 2; 1000 nM test compound
Tyk2 (human Tyk2 kinase domain, amino acids 886 to 1187), sequence (P29597 886-1187): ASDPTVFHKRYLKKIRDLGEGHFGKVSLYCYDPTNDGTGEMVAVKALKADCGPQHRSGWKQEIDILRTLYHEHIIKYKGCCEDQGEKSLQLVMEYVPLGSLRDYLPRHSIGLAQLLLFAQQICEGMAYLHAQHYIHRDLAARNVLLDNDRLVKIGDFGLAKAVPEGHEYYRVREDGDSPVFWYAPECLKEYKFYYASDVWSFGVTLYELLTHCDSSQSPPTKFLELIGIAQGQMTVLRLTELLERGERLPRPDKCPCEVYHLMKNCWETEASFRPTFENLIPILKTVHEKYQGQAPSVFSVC
Procedure: (§1) The assays described in Examples C, D, E and F for the determination of JAK1, JAK2, JAK3 and Tyk2 kinase activity, respectively, utilized the Omnia® Kinase fluorescence peptide substrate-based technology (Invitrogen). […] The reactions were therefore read at excitation 360 nm and emission was measured at 485 nm every 50 seconds for 45 minutes using a PerkinElmer EnVision Multilabel Plate Reader.
(§2) The final buffer conditions for each of the JAK1, JAK2, JAK3 and Tyk2 assays were as follows: 25 mM HEPES, pH 7.4, 10 mM MgCl2, 0.01% Triton X-100 and 1 mM DTT.
(§3) Compounds were prepared at 50× the final concentration in DMSO by conducting 3-fold serial dilutions from a 500-μM or 1000-μM intermediate dilution to give a 10-point dosing curve having a high dose of 10 or 20 μM. Two-μL aliquots of these were transferred to a fresh plate for a ten-fold intermediate dilution with assay buffer. Five-μL aliquots of the diluted compounds were then transferred to 20-μL of assay mixtures described in Examples C, D, E and F for a final concentration of DMSO of 2%. A standard or reference compound was typically included on each assay plate to validate that plate. For each plate, percent of control (POC) values were calculated for each well according to the following equation:
(§4) where Xmax=Average Uninhibited Controls • Xmin=Average Background IC50's were estimated from the POC's using a standard 4-parameter logistic model:
(§5) where A=Minimum Y (Bottom Asymptote) • B=Maximum Y (Top Asymptote) • C=EC50 • D=Slope Factor • X=Compound Concentration (nM) • Y=POC
(§6) The IC50 is defined as the concentration of inhibitor at which the POC equals 50 for the fitted curve.
Compounds of Formula I were screened for their ability to inhibit Tyk2 using the general enzyme inhibition assay method, in which the assay mixture contained 500 μM ATP, 8 μM Omnia® Y12 peptide (Catalog # IVGN KPZ3121C; Invitrogen Corporation, Carlsbad, Calif.) and 1 nM Tyk2 in a total volume of 20 μL. Human Tyk2 kinase domain, comprising amino acids 886 to 1187 with 10 additional histidine residues (histidine tag) on the carboxy terminus, was expressed and purified from baculovirus in-house at Array BioPharma Inc. (Boulder, Colo.). The histidine tag was cleaved after purification using standard conditions.

[4] = biological target: Jak3 (GST-tagged human Jak3 kinase domain, amino acids 781-1124) (Homo sapiens (Human), UniProt P52333); test: Jak3 inhibition assay (Omnia kinase assay); conditions: read-out: Jak3 (% inhibition at 1000 nM); Table 2; 1000 nM test compound
Jak3 (GST-tagged human Jak3 kinase domain, amino acids 781-1124), sequence (P52333 781-1124): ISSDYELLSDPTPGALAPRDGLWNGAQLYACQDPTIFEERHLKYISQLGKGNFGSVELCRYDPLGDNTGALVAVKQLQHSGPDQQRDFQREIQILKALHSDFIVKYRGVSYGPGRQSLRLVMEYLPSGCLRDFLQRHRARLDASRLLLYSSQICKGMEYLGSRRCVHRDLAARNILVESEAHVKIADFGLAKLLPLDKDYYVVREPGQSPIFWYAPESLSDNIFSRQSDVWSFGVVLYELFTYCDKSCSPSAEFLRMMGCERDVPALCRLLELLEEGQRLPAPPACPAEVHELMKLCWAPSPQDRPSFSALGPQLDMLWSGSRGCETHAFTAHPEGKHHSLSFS
Procedure: as §1, §2, §3, §4, §5, §6
Compounds of Formula I were screened for their ability to inhibit Jak3 using the general enzyme inhibition assay method, in which the assay mixture contained 500 μM ATP, 10 μM Omnia® Y7 peptide (Catalog # IVGN KNZ3071C, Invitrogen Corporation, Carlsbad, Calif.) and 1.5 nM Jak3 in a total volume of 20 μL. GST-tagged human Jak3 kinase domain comprising amino acids 781-1124 was purchased from Invitrogen Corporation, Carlsbad, Calif. (catalog # IVGN PV3855).

[5] = biological target: Jak1 (GST-tagged human Jak1 kinase domain, amino acids 866-1154) (Homo sapiens (Human), UniProt P23458); test: Jak1 inhibition assay (Omnia kinase assay); conditions: read-out: Jak1 (% inhibition at 1000 nM); Table 2; 1000 nM test compound
Jak1 (GST-tagged human Jak1 kinase domain, amino acids 866-1154), sequence (P23458 866-1154): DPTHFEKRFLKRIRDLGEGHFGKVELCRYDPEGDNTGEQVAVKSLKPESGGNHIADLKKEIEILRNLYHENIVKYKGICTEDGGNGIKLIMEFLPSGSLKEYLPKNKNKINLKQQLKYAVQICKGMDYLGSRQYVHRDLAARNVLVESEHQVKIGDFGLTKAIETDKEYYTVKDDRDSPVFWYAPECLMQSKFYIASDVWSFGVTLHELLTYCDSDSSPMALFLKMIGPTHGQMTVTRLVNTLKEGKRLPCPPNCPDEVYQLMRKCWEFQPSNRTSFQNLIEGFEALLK
Procedure: as §1, §2, §3, §4, §5, §6
Compounds of Formula I were screened for their ability to inhibit Jak1 using the general enzyme inhibition assay method, in which the assay mixture contained 500 μM ATP, 8 μM Omnia® Y12 peptide (Catalog # IVGN KPZ3121C; Invitrogen Corporation, Carlsbad, Calif.) and 5 nM Jak1 in a total volume of 20 μL. […] (catalog # IVGN PV4774).

[6] = read-out: Jak2 Enzyme (% inhibition at 1000 nM), Table 1
[7] = read-out: Jak2 (% inhibition at 1000 nM), Table 2

Jak2 (human Jak2 kinase domain, amino acids 808-1132), sequence (O60674 808-1132): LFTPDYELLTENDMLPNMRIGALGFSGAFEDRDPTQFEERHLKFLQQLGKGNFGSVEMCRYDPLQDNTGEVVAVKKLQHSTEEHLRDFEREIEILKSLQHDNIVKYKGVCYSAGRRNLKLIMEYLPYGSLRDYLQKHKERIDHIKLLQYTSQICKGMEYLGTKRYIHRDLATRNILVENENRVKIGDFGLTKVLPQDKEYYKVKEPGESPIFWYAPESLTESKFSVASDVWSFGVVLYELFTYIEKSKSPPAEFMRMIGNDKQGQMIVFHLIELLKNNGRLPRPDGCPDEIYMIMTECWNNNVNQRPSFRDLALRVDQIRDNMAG

Row | Structure (SMILES) | IC50 [1] [nM] | inhibition at 1 µM [1, 6] [%] | IC50 [2] [nM] | inhibition at 1 µM [3] [%] | inhibition at 1 µM [1, 7] [%] | inhibition at 1 µM [4] [%] | inhibition at 1 µM [5] [%]
1 | CCc1ncc(F)cc1[C@H]1CCCN1c1ccn2ncc(C(=O)N[C@H]3CC[C@H](O)C3)c2n1 [Example 200, 5-((R)-2-(2-ethyl-5-fluoropyridin-3-yl)pyrrolidin-1-yl)-N-((1S,3S)-3-hydroxycyclopentyl)pyrazolo[1,5-a]pyrimidine-3-carboxamide] | > 1000 | 12.5 | 12.7 |  |  |  | 
2 | O=C(NC1(C(F)(F)F)CC1)c1cnn2ccc(N3CCC[C@@H]3c3cncc(F)c3)nc12 [Example 98, (R)-5-(2-(5-fluoropyridin-3-yl)pyrrolidin-1-yl)-N-(1-(trifluoromethyl)cyclopropyl)pyrazolo[1,5-a]pyrimidine-3-carboxamide] |  | 23.7 |  | 9.2 | 27.8 | 5.5 | 8.8
3 | O=C(N[C@@H]1CCC[C@H]1O)c1cnn2ccc(N3CCC[C@@H]3c3cncc(F)c3)nc12 [Example 133, 5-((R)-2-(5-fluoropyridin-3-yl)pyrrolidin-1-yl)-N-((1R,2R)-2-hydroxycyclopentyl)pyrazolo[1,5-a]pyrimidine-3-carboxamide] |  | 14.4 | 16 |  |  |  | 
4 | Cc1ncc(F)cc1[C@H]1CCCN1c1ccn2ncc(C(=O)N[C@H]3CC[C@H](O)CC3)c2n1 [Example 194, 5-((R)-2-(5-fluoro-2-methylpyridin-3-yl)pyrrolidin-1-yl)-N-((trans)-4-hydroxycyclohexyl)pyrazolo[1,5-a]pyrimidine-3-carboxamide] |  | 31.2 |  | 8.1 | 37.6 | 2.6 | 7.4
5 | C[C@@H](NC(=O)c1cnn2ccc(N3CCC[C@@H]3c3cncc(F)c3)nc12)C(F)(F)F [Example 129, 5-((R)-2-(5-fluoropyridin-3-yl)pyrrolidin-1-yl)-N-((R)-1,1,1-trifluoropropan-2-yl)pyrazolo[1,5-a]pyrimidine-3-carboxamide] | > 1000 | 25.2 | 8 |  |  |  | 
6 | CC1(NC(=O)c2cnn3ccc(N4CCC[C@@H]4c4cncc(F)c4)nc23)CC1 [Example 91, (R)-5-(2-(5-fluoropyridin-3-yl)pyrrolidin-1-yl)-N-(1-methylcyclopropyl)pyrazolo[1,5-a]pyrimidine-3-carboxamide] |  | 34.9 |  | 14.8 | 42.1 | 8.3 | 20.3

Reference: patent US10251889B2, “Substituted pyrazolo[1,5-a]pyrimidine compounds as Trk kinase inhibitors” (Array BioPharma, Inc., priority 2009, dated 2019)
